Experimental data taken from publication PMC8385062, “Deciphering ion transport and ATPase coupling in the intersubunit tunnel of KdpFABC” (Nature Communications, 2021).

Molecular target: T1, KdpFABC (nucleotide / vanadate rows, site in KdpB) (Escherichia coli, UniProt P03960, D307N)
T1 construct: heterotetrameric complex, His-tagged KdpC, pBXC3H vector, produced in E. coli LB2003 (lacks endogenous K+ uptake systems), purified; Potassium-transporting ATPase KdpC subunit; Potassium-transporting ATPase KdpF subunit
Test: cryo-EM structure, […] Å
Format: binding
Conditions: 5 mM AMPPCP, 50 mM KCl; between N and P domains of KdpB, E1·ATP state

T1 sequence (P03960 whole entry D307N): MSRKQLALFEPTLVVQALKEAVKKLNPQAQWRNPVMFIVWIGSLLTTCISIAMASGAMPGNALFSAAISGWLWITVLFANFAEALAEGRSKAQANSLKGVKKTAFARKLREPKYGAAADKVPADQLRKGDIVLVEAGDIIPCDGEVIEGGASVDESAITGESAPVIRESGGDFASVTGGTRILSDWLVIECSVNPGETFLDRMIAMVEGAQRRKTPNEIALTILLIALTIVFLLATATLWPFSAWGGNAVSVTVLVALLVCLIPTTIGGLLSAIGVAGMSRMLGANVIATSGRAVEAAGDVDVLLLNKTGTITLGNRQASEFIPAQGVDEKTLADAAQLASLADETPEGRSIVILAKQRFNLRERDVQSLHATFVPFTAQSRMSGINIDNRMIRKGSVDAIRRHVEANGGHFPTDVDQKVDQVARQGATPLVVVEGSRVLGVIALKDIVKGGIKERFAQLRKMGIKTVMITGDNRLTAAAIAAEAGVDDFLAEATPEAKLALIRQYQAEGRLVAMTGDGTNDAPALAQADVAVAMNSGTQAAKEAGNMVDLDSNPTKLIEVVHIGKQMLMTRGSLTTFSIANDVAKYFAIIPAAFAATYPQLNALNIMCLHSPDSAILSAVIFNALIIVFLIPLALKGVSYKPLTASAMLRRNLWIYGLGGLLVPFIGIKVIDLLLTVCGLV
T1 sequence (P03959 whole entry partner): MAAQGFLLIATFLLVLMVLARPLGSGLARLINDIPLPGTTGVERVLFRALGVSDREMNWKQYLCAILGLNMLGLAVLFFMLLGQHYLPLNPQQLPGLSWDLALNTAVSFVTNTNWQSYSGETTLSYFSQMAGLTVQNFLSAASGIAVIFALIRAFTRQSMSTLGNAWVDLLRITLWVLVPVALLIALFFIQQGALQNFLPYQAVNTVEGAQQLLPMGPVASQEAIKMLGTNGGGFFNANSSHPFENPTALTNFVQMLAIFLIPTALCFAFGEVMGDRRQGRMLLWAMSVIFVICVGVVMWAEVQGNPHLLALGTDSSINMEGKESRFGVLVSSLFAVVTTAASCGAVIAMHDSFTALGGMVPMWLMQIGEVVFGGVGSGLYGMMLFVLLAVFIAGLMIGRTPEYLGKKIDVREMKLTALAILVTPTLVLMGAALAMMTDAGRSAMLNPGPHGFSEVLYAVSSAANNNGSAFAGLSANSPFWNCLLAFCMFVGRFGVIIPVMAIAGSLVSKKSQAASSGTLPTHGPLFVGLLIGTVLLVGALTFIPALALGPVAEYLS
T1 sequence (P03961 whole entry partner): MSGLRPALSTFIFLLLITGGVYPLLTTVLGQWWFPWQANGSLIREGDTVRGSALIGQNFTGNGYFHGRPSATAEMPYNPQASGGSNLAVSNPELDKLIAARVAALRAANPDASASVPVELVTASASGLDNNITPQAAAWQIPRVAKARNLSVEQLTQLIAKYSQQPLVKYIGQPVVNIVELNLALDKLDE
T1 sequence (P36937 whole entry partner): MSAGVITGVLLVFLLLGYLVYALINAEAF

Nc1ncnc2c1ncn2[C@@H]1O[C@H](COP(=O)(O)OP(=O)(O)CP(=O)(O)O)[C@@H](O)[C@H]1O [AMPPCP]
cryo-EM structure, 3.1 Å: The nucleotide AMPPCP is coordinated between the N and P domains
